# Data: patent US20050153381A1, “Immunocapture of mitochondrial protein complexes” (priority 2002, published 2005)
# What was measured:
# [1] = system: human mitochondrial F1/F0 ATPase (Complex V); assay: ATPase activity of immunocaptured F1/F0 ATPase, 96-well; type: biochemical
# Method: Solubilization. Samples were thawed and placed in 25 mM HEPES pH 7.5 (to dissociate F1F0/IF1 interactions) or 10 mM […] (Anatrace) pH 6.5 (to retain F1F0/IF1 interactions), containing 0.4% (w/v) […], and the protease inhibitors leupeptin (0.5 μg/ml), pepstatin (0.5 μg/ml) and PMSF (1 mM). Mitochondria were solubilized at 5 mg/ml and whole cells were solubilized at 2×10^7 cells/ml. Samples were mixed well and then kept on ice for 30 minutes with occasional agitation. Insoluble material was then removed by centrifugation at 16,000×g for 20 minutes at 4° C.
# Immunocapture. Assays were run in 96-well plates (Falcon Probind™) using 100 μl/well. […] To control for non-specific adsorption of ATPase, a non-specific mouse monoclonal antibody was used as a null capture mAb. Wells were then loaded with solubilized test samples diluted in TBS with 2.5% BSA, incubated for 2 hours at room temperature and then washed 4 times with TBS.
# ATPase activity. ATPase reaction buffer (25 mM HEPES pH 7.5 or 10 mM MOPS pH 6.5, with 25 mM KCl, 5 mM MgCl2, 5 mM KCN and 2 mM ATP) was added at 100 μl/well and incubated for 3 hours at 37° C. The reaction was stopped and free Pi generated by ATP hydrolysis was detected essentially as described by Walker et al. (Meth. Enzymol., 260: 163-190, 1995) by addition of 0.5% ammonium molybendate in 0.7 M H2SO4 (42 μl/well) followed by 10% ascorbic acid (4 μl/well). After incubation for 30 minutes at room temperature to allow color development, absorbance was measured at 690 nm.
# IF1 Stripping Conditions. IF1 was dissociated from previously immunocaptured IF1/F1F0 complexes by exposure to IF1 stripping buffer (30 mM Tris-sulfate pH 8, 250 mM KCl, 2 mM EDTA, 75 mM sucrose) for 30 minutes at 37° C. (Van Raaij et al., Biochem. 35: 15618-15625, 1996). The wells were then washed with either a pH 7.5 wash buffer (TBS) or a pH 6.5 wash buffer (10 mM MOPS pH 6.5, 150 mM NaCl and 1 mM MgCl2), and ATPase activity measured at either pH 7.5 or pH 6.5 as described above.
# IF1 Addition Conditions. Recombinant human IF1 was obtained by PCR-based amplification of the appropriate gene from a human heart CDNA library (Clontech), cloning into pET15b (Novagen), transformation of E. coli and overexpression and purification of the His-tagged protein on a Ni column by standard protocols (Novagen). Isolated protein was diluted in pH 6.5 wash buffer (as described above) containing 1 mM ATP and incubated with previously immunocaptured F1F0. The wells were then washed with pH 6.5 wash buffer and ATPase activity measured at pH 6.5 as described above.
# Complex V = target: T1, Complex V (Homo sapiens, UniProt P00846+P05496+P06576+P25705); assay: Complex V activity dipstick; type: biochemical; details: normal fibroblast Complex V (FIG. 30)
# T1 construct: tissue Analytical Biological Services, Inc; host or cells: human heart ventricle mitochondria (A10, A12); MRC5, Rho0-MRC5 and GM00028 fibroblasts (A12); normal and Rho0 human fibroblast mitochondria (A19)
# Method: Mitochondria (human heart, human fibroblast or bovine heart) were solubilized at 5 mg/ml mitochondrial protein, 1% wt/vol lauryl maltoside, 100 mM NaCl, 25 mM HEPES pH 7.5, and the protease inhibitors pepstatin (0.5 μg/ml), leupeptin (0.5 μg/ml) and PMSF (1 mM). The samples were incubated at 4° C. for 30 minutes and the insoluble material removed by centrifugation at 16,000×g for 20 minutes. Solubilized mitochondria were diluted to the desired concentration in 150 mM NaCl, 50 mM Tris-HCl, pH 7.5 containing 2.5% bovine serum albumin as a blocking and stabilization agent.
# After the entire sample wicked up into the nitrocellulose (approximately 15 minutes), the stick was transferred to a second well containing 50 μl of wash buffer (150 mM NaCl, 50 mM Tris-HCl, pH 7.5), which was allowed to wick up the stick (approximately 15 minutes). The absorbent pad was then removed and the entire dipstick incubated in a tube containing 3 ml wash buffer for approximately 15 minutes. The washed dipstick (with the immunocaptured OXPHOS complex of interest) was then transferred to the appropriate enzyme reaction buffer to reveal enzyme activity as described below. […]
smiles,measurement,setting,value
CC[C@H]1/C=C/C=C/C[C@@H](C)[C@H](O)[C@@](C)(O)C(=O)[C@@H](C)[C@H](O)[C@@H](C)C(=O)[C@@H](C)[C@H](O)[C@@H](C)/C=C/C(=O)O[C@@H]2[C@H](C)[C@H](CC1)O[C@]1(CC[C@H](C)[C@H](C[C@@H](C)O)O1)[C@H]2C [oligomycin],oligomycin sensitivity of F1/F0 ATPase immunocaptured from Rho0 cell mitochondria,"[1]; Rho0 fibroblasts, 1.5 μg/ml oligomycin (FIG. 8)",oligomycin insensitive
same,oligomycin sensitivity of immunocaptured enzyme,"[1]; cultured fibroblast extract, 1.5 μg/ml oligomycin (FIG. 7B)",more than 90%
same,inhibition of ATPase activity of immunocaptured human F1/F0 ATPase,"[1]; human heart mitochondria, 1.5 μg/ml oligomycin (FIG. 5)",more than 90%
same,inhibition of captured F1/F0 ATPase,[1]; mAb 12F4AD8AF8 directly adsorbed to the plate,could not be inhibited
same,inhibition of captured F1/F0 ATPase,[1]; mAb 12F4AD8AF8 oriented on a layer of goat-anti-mouse IgG,completely inhibited
same,effect on Complex V activity dipstick signal,Complex V,reduced signal
